Measurements reported in patent US20250195444A1, “POLYMER-COATED NANOPARTICLES AND PREPARATION METHOD THEREFOR” (SCINDY PHARMACEUTICAL (SUZHOU) CO., LTD, priority 2022, published 2025).

Assays:
[1] = Safety test, maximum tolerated dose in ICR mice; assay type: in vivo; settings: male ICR mice, intravenous injection, 1.5 mg/ml
Description: The drug safety of colistin sulfate, the nanoparticles of Examples 1 and 2, and the nanoparticles of Comparative Examples 1 and 2 in mice was compared.
Test indicators: clinical observation, animal morbidity/death, and weight change. The maximum compound dosage that causes the weight loss of mice to not exceed 20% and no animal death is the maximum tolerated dose.

[2] = tested on: Carbapenem-susceptible Escherichia coli (12); assay: In vitro antimicrobial susceptibility testing, broth microdilution MIC; assay type: cell-based; settings: 12 strains
Description: (§1) A total of 44 strains of clinically isolated Gram-negative bacteria were collected for antimicrobial susceptibility testing, including 12 strains of Escherichia coli (carbapenem-susceptible), 12 strains of Klebsiella pneumoniae (carbapenem-susceptible), 10 strains of Acinetobacter baumannii (carbapenem-susceptible), and 10 strains of Pseudomonas aeruginosa (carbapenem-susceptible).
(§2) According to the recommendations of the 2021 edition of the Clinical and Laboratory Standards Institute (CLSI), a broth microdilution method was used to measure the minimum inhibitory concentration (MIC) of a test substance against clinical isolates. • (1) Preparation of antimicrobial drug: The test drug was dissolved and diluted, and the control drug was dissolved and diluted according to CLSI requirements. The test concentration range of the antibacterial drug solution was 0.015 mg/L to 32 mg/L. • (2) Culture medium: Cation adjusted muellerhinton broth (CAMHB), a product of BD Company, USA, batch number: 9324795. • (3) Inoculation amount: Fresh pure colonies on Columbia blood agar were picked using a direct colony suspension method. The colonies were adjusted to a McFarland turbidity of 0.5 and then appropriately diluted. The final concentration of the test bacteria was 10^5 CFU/mL. • (4) Culture conditions: The colonies were cultured in air at 35° C.±2° C. for 16 to 20 hours. • (5) Reading and judgment of results: For colistin, according to the European EUCAST breakpoint judgment standard, a result of <2 mg/L is susceptible, and a result of >4 mg/L is resistant. The lowest antimicrobial drug concentration that inhibits bacterial growth is read as an MIC value. • (6) Quality control strains: Escherichia coli ATCC 25922 and Pseudomonas aeruginosa ATCC 27853. • (7) Data statistics: WHONET version 5.6 software was used to perform statistical analysis on the results of the antimicrobial susceptibility testing.

[3] = tested on: Carbapenem-susceptible Pseudomonas aeruginosa (10); assay: as above; assay type: cell-based; settings: 10 strains
Description: as §1, §2

[4] = tested on: Carbapenem-susceptible Acinetobacter baumannii (10); assay: as above; assay type: cell-based; settings: 10 strains
Description: as §1, §2

[5] = tested on: Carbapenem-susceptible Gram-negative bacteria (44); assay: as above; assay type: cell-based; settings: 44 strains
Description: as §1, §2

[6] = tested on: Carbapenem-susceptible Klebsiella pneumoniae (12); assay: as above; assay type: cell-based; settings: 12 strains
Description: as §1, §2

[7] = Safety test, maximum tolerated dose in Balb/c nude mice; settings: male Balb/c nude mice, intravenous injection, 1.0 mg/ml
Experimental: Male Balb/c nude mice (purchased from Shanghai Lingchang Experimental Animal Co., Ltd.), 6 to 7 weeks old and weighing 17 g to 21 g, were given platinum cyclohexanediamine dihydrate or a platinum cyclohexanediamine dihydrate polymer-coated nanoparticle solution by intravenous injection at an administration concentration of 1.0 mg/ml. The dose volume was adjusted according to the weight of the animal. The highest dose that enables all subjects in the test to survive continuously is defined as MTD.
Animal grouping: Before starting the administration, the animals were weighed and randomly grouped according to the weight.
Test indicators: After administration, the mice were observed continuously for at least 14 days, and the observation interval and frequency were properly arranged so as to observe the occurrence of toxic reactions, recovery time, animal death time, etc. If the toxic reactions of the mice occur slowly or the mice recover slowly, the observation time should be appropriately extended.

HT29 cells = assay: Proliferation of HT29 cells in vitro (CCK8); assay type: cell-based; settings: 72 hours of drug treatment, read-out: HT-29ReIC50
Experimental: Cell culture: HT29 (Cat. No.: CBP30001L, purchased from Cobioer) was revived and cultured with 1640+10% FBS.
Plating: Normally growing cells were digested with a trypsin cell digestion solution, then centrifuged, counted, and plated into a 96-well plate at a cell density of 3000 cells/well, 100 μL per well, for a total of 60 wells, and sealed with an appropriate amount of PBS around to prevent water evaporation in the edge wells.
Administration: The administration was performed on the second day after cell plating, 100 μL of a drug solution was added to each well, and two replicate wells were set up for each concentration point.
Detection: After 72 hours of drug treatment, all the liquid in the 96-well plate was poured out, and 100 μL of a CCK8 (diluted to 1:9 with culture medium) solution was added to each well. After incubation at 37° C. for a period of time (OD450 of Vehicle group reached above 1.0), the absorption at 450 nm was detected using an ELISA reader.
Data processing: Inhibition Rate (%)=(1−OD450Sample/OD450Vehicle)×100, where
OD450Sample is the 450 nm absorption value of the drug-treated group, and OD450Vehicle is the 450 nm absorption value of the DMSO control group. GraphPad Prism 8.0 software was used to draw an S-shaped dose-survival rate curve with a nonlinear regression model, and the IC50 value was calculated.

colistin sulfate showed an MTD [1] of 8 mg/kg, an MIC50 [2] of 0.125 mg/L and an MIC90 [2] of 0.25 mg/L. The “Mode (MIC)” value [2] was 0.125 mg/L, the “Resistance rate (%)” value ([2]; EUCAST breakpoint) was 0% and the “Susceptibility rate (%)” value ([2]; EUCAST breakpoint) was 100%. For the same substance, the MIC50 [3] was 1 mg/L, the MIC90 [3] was 2 mg/L and the “Mode (MIC)” value [3] was 2 mg/L. The “Resistance rate (%)” value ([3]; EUCAST breakpoint) was 0%, the “Susceptibility rate (%)” value ([3]; EUCAST breakpoint) was 100% and the MIC50 [4] was 0.5 mg/L. The MIC90 [4] was 0.5 mg/L, the “Mode (MIC)” value [4] was 0.5 mg/L and the “Resistance rate (%)” value ([4]; EUCAST breakpoint) was 0%. The “Susceptibility rate (%)” value ([4]; EUCAST breakpoint) was 100%, the MIC50 [5] was 0.5 mg/L and the MIC90 [5] was 2 mg/L. The “Mode (MIC)” value [5] was 0.5 mg/L, the “Resistance rate (%)” value ([5]; EUCAST breakpoint) was 0% and the “Susceptibility rate (%)” value ([5]; EUCAST breakpoint) was 100%. The MIC50 [6] was 0.5 mg/L, the MIC90 [6] was 0.5 mg/L and the “Mode (MIC)” value [6] was 0.5 mg/L. The “Resistance rate (%)” value ([6]; EUCAST breakpoint) was 0% and the “Susceptibility rate (%)” value ([6]; EUCAST breakpoint) was 100%.

With “platinum cyclohexanediamine dihydrate [Cyclohexanediamine platinum dihydrate]” the MTD [7] was under 4 mpk and the IC50 (HT29 cells) was 1.61 ± 0.23 µM.
